Reference: patent US8207346B2, “Methods of synthesizing anatabine” (Rock Creek Pharmaceuticals, Inc., priority 2010, dated 2012)

What was measured:
[1] = Stability analysis of anatabine base with and without BHT as a preservative; assay type: physicochemical
Method: See, for example, Tables 3 and 4 in Examples 4 and 5, respectively. Purity of the anatabine may be retained for extended periods of time. […] Further, anatabine remains stable when stored at a variety of temperatures. For example, the anatabine retains the indicated purity when stored at −20° C. to −10° C., −20° C. to 0° C., −10° C. to 0° C., 0° C. to 4° C., 2° C. to 8° C., 5° C. to 10° C., 10° C. to 15° C., 15° C. to 25° C., or 25° C. to 28° C. Stability is determined by any suitable art-recognized method. For example, anatabine stability may be monitored by high performance liquid chromatography (HPLC), liquid chromatography-mass spectroscopy (LC-MS), or nuclear magnetic resonance (NMR).
Anatabine base stability was analyzed with and without BHT (3,5-di-tert-butyl-4-hydroxytoluene). The initial purity of BHT-free anatabine base was 94.95%. The initial purity of anatabine base with BHT was 94.87%.

monoamine oxidase (MAO) = settings: known from Williams et al. U.S. Pat. No. 6,929,811; cited from earlier work

C1=CCC(c2cccnc2)NC1 (stereo not shown) [anatabine base without BHT, Anatabine]
Purity (%) ([1]; day 1, storage temperature 2-8° C.): 94.44%
Purity (%) ([1]; day 1, storage temperature 25-28° C.): 89.63%
Purity (%) ([1]; day 1, storage temperature −20° C.): 93.90%
Purity (%) ([1]; day 2, storage temperature 2-8° C.): 94.05%
Purity (%) ([1]; day 2, storage temperature 25-28° C.): 87.59%
Purity (%) ([1]; day 2, storage temperature −20° C.): 94.62%
Purity (%) ([1]; day 3, storage temperature 2-8° C.): 91.65%
Purity (%) ([1]; day 3, storage temperature 25-28° C.): 80.74%
Purity (%) ([1]; day 3, storage temperature −20° C.): 93.87%
Purity (%) ([1]; day 12, storage temperature 2-8° C.): 90.12%
Purity (%) ([1]; day 12, storage temperature 25-28° C.): 79.59%
Purity (%) ([1]; day 12, storage temperature −20° C.): 94.01%
Inhibition of monoamine oxidase (MAO) (monoamine oxidase (MAO)): inhibit monoamine oxidase (MAO)
